Experimental data published in PMC9386499, “Integrated regulation of PKA by fast and slow neurotransmission in the nucleus accumbens controls plasticity and stress responses” (The Journal of Biological Chemistry, 2022).
No end group written: not given here.

Assays:
phospho-Thr69 RIIβ = experiment: Slice pharmacology, immunoblot of phospho-Thr69 RIIβ; type: cell-based, rat
Description: (§1) Slice pharmacology was conducted as previously described ([62]). Briefly, striatum was microdissected from 350 μ coronal rat brain slices, equilibrated for 1 h, 30 °C in Kreb’s buffer with 10 μg/ml adenosine deaminase (Roche). […] Briefly, conditions included low Mg^2+ (0.5 mM) and a 30 min tissue recovery in drug-free buffer prior to harvest. Tissue was snap-frozen on dry ice. Immunoblotting was as previously described ([63]) and analyzed using Image J software (NIH). Data from immunoblots with phosphorylation-specific antibodies were normalized to total protein. Antibodies used included those for PKA regulatory subunits (BD Biosciences Cat# 610626, RRID: AB_397958; BD Biosciences Cat# 610609 RRID:AB_397943; BD Biosciences Cat# 612242 RRID:AB_399565), phospho-S114 RIIβ (BD Biosciences Cat# 612550 RRID:AB_399845), and NMDAR1 (BD Biosciences Cat# 556308 RRID:AB_396353), phospho-S845 GluA1 (PhosphoSolutions Cat# p1160-845 RRID:AB_2492128) and phospho-T34 DARPP-32 (PhosphoSolutions Cat# p1025-34 RRID:AB_2492068), and total GluA1 (Millipore Cat# 05-855R RRID:AB_1587070). Total DARPP-32 antibody was from H. Hemmings (Weill Cornell Medical College).

[1] = test system: cortico-ventral striatal synapses (NAc); experiment: Cortico-ventral striatal field recordings (fEPSP, LTP, I/O, PPR); type: cell-based, rat; conditions: slices
Description: Adult rats were anaesthetized by isoflurane (Piramal Healthcare), and brains were placed in ice-cold sucrose saline solution (4 °C) containing (in mM): 87 NaCl, 75 Sucrose, 2.5 KCl, 1.25 NaH2PO4, 7 MgCl2, 0.5 CaCl2, 25 NaHCO3, and 10 glucose (pH 7.4; saturated with […]). Parasagittal vibratome slices (350 μ thick) containing prefrontal cortex and NAc core were transferred into saline solution containing 125 NaCl, 2.5 KCl, 1.25 NaH2PO4, 1.3 MgCl2, 2 CaCl2, 25 NaHCO3, and 25 glucose (pH 7.4; saturated with […]) and maintained for 20 min at 30 °C, then transferred to room temperature (22–25 °C) and allowed 1 h recovery. […]
Extracellular recordings: fEPSPs were obtained at 25 °C in the presence of the GABAA antagonist (SR95531, Gabazine, 2 μM) and were evoked by square current pulses (0.2 ms) at 0.033 Hz with a bipolar stimulation electrode (FHC) placed at the border of corpus callosum separated by ∼300 to 500 μ from the recording electrode. […] The paired pulse ratio (PPR) paradigm was applied using different inter-stimulus intervals and PPR changes were measured as PPR = second fEPSP amplitude/first fEPSP amplitude. After recording stable baseline for at least 10 min, LTP was induced by HFS (4 trains, 100 Hz, 1 s duration, separated by 20 s). fEPSP amplitude was monitored for at least 50 min after HFS to evaluate LTP. […]

D1R neurons (NAc) = experiment: Whole-cell patch-clamp recordings of D1R-expressing neurons (EPSP, LTP, AMPA/NMDA ratio); type: cell-based, mouse; conditions: NBQX 10 μM after APV 20 μM
Text: For whole-cell recordings, Drd2-EGFP FVB mice were deeply anesthetized and transcardially perfused with ice-cold cutting artificial cerebrospinal fluid containing (in mM): 87 NaCl, 2.5 KCl, 0.5 CaCl2, 7 MgCl2, 1.25 NaH2PO4, 25 NaHCO3, 25 glucose, and 75 sucrose, bubbled with 95% O2/5% CO2. Parasagittal slices were cut transversely at 300 μm using a vibrating blade microtome (VT1200S, Leica Microsystems). Slices were transferred to normal saline solution containing (in mM): 119 NaCl, 2.5 KCl, 2.5 CaCl2, 1.3 MgCl2, 1.3 NaH2PO4, 26 NaHCO3, and 20 glucose at 32 °C for 30 min and then allowed to recover for 1 h at room temperature before recordings. Individual slices were transferred to a submerged chamber mounted on a fixed-stage upright microscope (Zeiss Axioskop FS) and continuously perfused at 30 °C with normal saline solution containing (in μM): 0 MgCl2, 50 picrotoxin, and 10 glycine. GFP-negative D1 cells were visualized by infrared differential interference contrast microscopy with a water-immersion 63X objective (0.9 NA, Zeiss). Current clamp recordings were performed with unpolished pipettes containing (in mM): 140 K-gluconate, 5 KCl, 2 MgCl2, 10 Hepes, 4 Mg-ATP, 0.3 Na-GTP, 10 Na2-creatine phosphate, 0.2 Na-EGTA, 290 to 300 mOsm, pH 7.3 (final resistance, 3-4MΩ). LTP of EPSPs was induced by HFS in control and RIIβ siP-treated D1 cells (at −70 mV). […]

PKA [2] = experiment: PKA inhibition by dephospho- vs. phospho-T69 RIIβ; type: biochemical; conditions: in vitro, n=4
Description: (§2) Rat recombinant RIIβ was derived as a C-terminal 6XHis fusion by Ni-NTA affinity purification using standard pET vector methods (Novagen). RIIβ was phosphorylated in vitro by Cdk5 or PKA using standard conditions ([55]). Cdk5/p25 was from Millipore, and PKA was from NEB. 32P incorporation was quantitated by PhosphorImager analysis. All kinetic analyses were conducted under empirically defined linear conditions. PKA activity was measured by phosphorylation of recombinant inhibitor-1 ([56]) or DARPP-32 ([14]). For phosphorylation site identification, preparatively phosphorylated RIIβ was subjected to nano-liquid chromatography tandem mass spectrometry as previously described ([57]). Digests were redissolved in 0.1% trifluoracetic acid and loaded onto a ZipTip with C18 resin (Millipore) for purification. Analysis was conducted using nanoelectrospray-QSTAR Pulsar I quadrupole time-of-flight tandem mass spectrometry (MDS Proteomics). Structural model of AKAP/RIIβ dimer interaction was based on published data of AKAP (PDB: 2HWN) ([24]) and RIIβ (PDB: 1CX4) ([58]).

rats = experiment: Forced swim test (FST) after intra-accumbens infusion; type: in vivo, rat; conditions: ketamine 2 µg in 1 µl, subanesthetic, bilateral intra-accumbal
Description: Rats were anesthetized with isoflurane and placed in a stereotaxic frame (Kopf Instruments). Bilateral cannulas (3 mm center-to-center distance, cut 8 mm below pedestal, Plastics One) were placed in NAc core (anterior-posterior to bregma +1.5 mm, medial/lateral ±1.5 mm, depth −6.8 mm). Peptides were bilaterally infused 1 week later in awake and mobile animals. Injection volume was 1 μl of peptide (100 μM in PBS, 10% DMSO, per cerebral hemisphere). Animals were allowed to recover for 1 h prior to behavioral testing. Accuracy was confirmed by infusion of methylene blue dye or direct visualization of cannula tracts postbehavioral testing.
The Porsolt FST was conducted as described previously ([64]). Briefly, one-trial forced swim was used for acute stress. Nonsurgerized rats underwent an 8 min swim in an 8-gallon transparent water filled cylinder at 24 to 25 °C. Animals recovered in their home cages for 1 h prior to brain dissection. The NAc was then microdissected for immunoblotting. […] They were then placed in a locomotor chamber, and locomotor activity was monitored for 30 min in circular donut-shaped locomotor chambers in the dark with a computer-monitored infrared photobeam system (MED-PC, Med Associates). […] The last 6 min of the test were scored for latency to immobility and time immobile, with immobility defined as the time animals spent completely motionless.

[3] = target: T1, Cdk5-dependent phosphorylation of RIIβ (Homo sapiens, UniProt Q00535); experiment: Inhibition of Cdk5-dependent phosphorylation of RIIβ in vitro by siP; type: biochemical; conditions: means ± S.E.M.
T1 construct: purchased Millipore
Description: as §2

PKA [4] = experiment: PKA inhibition curves for WT versus S114D RIIβ (in vitro); type: biochemical; conditions: means ± S.E.M., n = 3
Description: as §2

Cdk5 = experiment: In vitro phosphorylation of RIIβ by Cdk5 (stoichiometry); type: biochemical; conditions: saturating conditions, 32P incorporation
Description: as §2

phospho-Ser114 RIIβ = experiment: Slice pharmacology, immunoblot of phospho-Ser114 RIIβ; type: cell-based, rat; conditions: striatal slices, NMDA 50 μM, 5 min; *p < 0.05, n = 4
Description: as §1

T1 sequence (Q00535 whole entry): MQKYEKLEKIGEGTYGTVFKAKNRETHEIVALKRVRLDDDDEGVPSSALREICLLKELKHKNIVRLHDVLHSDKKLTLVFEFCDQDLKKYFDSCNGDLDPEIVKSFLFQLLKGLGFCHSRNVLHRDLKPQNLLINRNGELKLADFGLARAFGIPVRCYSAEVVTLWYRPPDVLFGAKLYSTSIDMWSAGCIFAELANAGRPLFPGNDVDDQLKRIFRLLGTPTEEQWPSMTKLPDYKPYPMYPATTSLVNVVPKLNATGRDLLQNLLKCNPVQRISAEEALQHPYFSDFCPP
T1 sequence (Q15078 99-307 partner limits assumed): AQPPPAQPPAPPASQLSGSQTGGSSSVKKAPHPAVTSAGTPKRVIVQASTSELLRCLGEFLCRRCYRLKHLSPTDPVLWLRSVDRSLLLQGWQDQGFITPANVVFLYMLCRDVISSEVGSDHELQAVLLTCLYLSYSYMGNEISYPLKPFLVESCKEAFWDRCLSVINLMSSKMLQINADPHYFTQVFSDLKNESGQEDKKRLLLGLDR

For `C=C1[C@@H](O)[C@@H]2O[C@]3(CC[C@H](/C=C/[C@@H](C)[C@@H]4CC(C)=C[C@@]5(O[C@H](C[C@@](C)(O)C(=O)O)CC[C@H]5O)O4)O3)CC[C@H]2O[C@@H]1[C@@H](O)C[C@H](C)[C@H]1O[C@@]2(CCCCO2)CC[C@H]1C` [okadaic acid], the “basal phospho-Thr69 RIIβ, okadaic acid 200 nM” value (phospho-Thr69 RIIβ; striatal slices, 200 nM, 1 h (selective PP2A inhibition), *p < 0.05, n = 4-5) was “increased”, the “basal phospho-Thr69 RIIβ, okadaic acid 1 μM” value (phospho-Thr69 RIIβ; striatal slices, 1 μM, 1 h (PP1 inhibition), **p < 0.01, n = 4-5) was “increased” and the “effect on NMDA-induced reduction of phospho-Thr69 RIIβ” value (phospho-Thr69 RIIβ; striatal slices, NMDA 25 µM, 5 min, cyclosporin A 10 µM, 1 h or okadaic acid 1 µM, 1 h, n = 4-6) was “attenuated the effect of NMDA”.
For “RQIKIWFQNRRMKWKK-AAGAGSGAVAFKGANGEA [scrambled siP, penetratin-tagged scramble control peptide]”, the “fEPSP amplitude after HFS (LTP)” value ([1]; 10 μM for 15 min, washout 25 min, maintained through 50 min following HFS, 25 °C, n = 5) was 0.31 ± 0.03 mV.
In the case of `NS(=O)(=O)c1cccc2c1c([N+](=O)[O-])cc1nc(O)c(O)nc12` [NBQX], the “effect on EPSP responses, D1R neurons” value (D1R neurons (NAc)) is reported as “ablated EPSP responses”.
In the case of “Thr69 RIIβ: RIIβ phosphorylated at Thr69 by Cdk5”, the “effect of Thr69 phosphorylation on inhibition of PKA catalytic activity by RIIβ” value (PKA [2]) is reported as “did not alter the inhibition of PKA catalytic activity”.
With `CNC1(c2ccccc2Cl)CCCCC1=O` (centres unmarked) [ketamine] the “RIIβ siP effects compared with ketamine in FST” value (rats) was “closely mimicked”.
“RQIKIWFQNRRMKWKKAGAAAGGGTPSKGVNFAEE [RIIβ siP]” was tested, and the IC50 [3] was 7.14 ± 2.28 µM.
With “RIIβ: Rat recombinant RIIβ, C-terminal 6XHis fusion; PKA regulatory subunit” the IC50 (PKA [4]) was 0.0015 ± 0.0003 µM and the “maximal stoichiometry of phosphorylation by Cdk5” value (Cdk5) was 0.6 mol PO4/mol of substrate.
With `CN[C@H](CC(=O)O)C(=O)O` [NMDA, N-methyl-D-aspartate] the “phospho-Ser114 RIIβ, NMDA” value (phospho-Ser114 RIIβ) was “PKA-dependent phosphorylation at Ser114 was increased”, the “phospho-Thr69 RIIβ, NMDA” value (phospho-Thr69 RIIβ; striatal slices, NMDA 50 μM, 5 min, *p < 0.05, n = 4) was “strongly reduced the phosphorylation state of Thr69” and the “phospho-Thr69 RIIβ, LTP-like conditions” value (phospho-Thr69 RIIβ; ventral striatal slices, low Mg2+, NMDA 25 μM, 5 min and/or dopamine 10 μM, 15 min, 30 min delay after treatment, n = 5 to 6) was “decrease in phospho-Thr69 RIIβ”.
`Oc1cc2c(c(Cl)c1O)CCNCC2c1ccccc1` (centres unmarked) [SKF81297] was tested, and the “LTP (HFS-induced), D1 agonist” value ([1]; SKF81297 2 µM, 15 min bath application, #p < 0.05 control vs SKF, n = 7) was “enhanced”.
